# Assay results from US10766862B2, “Crystal form and salt form of and preparation method for tyrosine kinase inhibitor” (GUANGDONG RAYNOVENT BIOTECH CO., LTD., priority 2016, dated 2020).
# How the values were obtained:
# A549 Transplant Model = experiment: Analysis of tumor growth inhibition (TGI), A549 transplant model; format: in vivo; conditions: mice, QD
# Protocol: The development and growth of tumors are evaluated by the relation between the tumor volume and time. The long axis (L) and the short axis (W) are measured with caliper twice per week. The tumor volume (TV) is calculated in accordance with the formula of (L×W^2)/2. TGI is calculated from the difference between the median tumor volume of mice of the solvent group and the median tumor volume of mice of the administration group, and expressed as a percentage relative to the median tumor volume of the solvent group.
# It is calculated from the equation of: % TGH(Median Tumor Volume (Control Group) Median Tumor Volume (Administration Group))/Median Tumor Volume (Control Group))×100%
# The initial statistical analysis is carried out by repeated variance analyses. Next, multiple comparisons are made by Scheffe psot hoc test method. A solvent (aqueous solution containing 0.5% of methylcellulose and 0.2% Tween) alone is used as negative control.
# [1] = Test of solid stability of crystal forms F, K and L; format: physicochemical
# Protocol: Test of Solid Stability of Crystal Form F (Hydrochloride), Crystal Form K (Methane Sulfonate) and Crystal Form L (Methane Sulfonate) […] About 5 mg of each crystal form was accurately weighed and placed in a glass vial. Two aliquots were taken as the sample for test under each condition and at each time point. One aliquot was taken as the sample for XRPD test under each condition and at each time point. The vials containing sample were sealed with aluminum foil, and the foil was pierced to form some holes thereon. Then, the samples were placed in constant temperature & humidity chambers under the conditions of 60° C./92.5% RH and 40° C./75% RH. [table] 2. Analysis of Sample of Solid Stability At the tested time point, the sample was taken out, capped, and stood to room temperature. […] Diluent: an aqueous solution of methanol-0.04% TFA (90:10, v:v) Mobile phase A: 0.04% aqueous solution of TFA Mobile phase B: Acetonitrile as mobile phase B. Crystal form F (hydrochloride): To each sample was added 18 mL of the diluent (to the sample at Day 0 was added 20 mL of the diluent). The mixture was subject to ultrasonic treatment for 2 min, and mixed homogeneously for use as the sample solution. Crystal forms K and L (methane sulfonate): To each sample was added 15 mL of the diluent. The mixture was subject to ultrasonic treatment for 2 min, and mixed homogeneously for use as the sample solution. NOTE: All the sample solutions were injected for analysis immediately after formulation. Once the HPLC system was stable, the sample was injected for analysis.
# [2] = Test of solubility of crystal form A and its salts in four medias (HPLC, 24 hr); conditions: for Solubility (ug/mL)_24 hr: 24 hr stirring; for pH (24 hr): supernatant
# Protocol: (§1) Preparation of Control Solution (Crystal Form a as Control Sample)
# (§2) Crystal form A was accurately weighed and added into a sample vial. 10 mL of acetonitrile was added, and subject to ultrasonic treatment for 5 min. The mixture was cooled to room temperature, and mixed homogeneously. Two aliquots were formulated in parallel, and labelled as STD-1 and STD-2, respectively.
# Preparation of Linear Solution
# (§3) The control solution STD-1 was gradually diluted 1×, 5×, 10×, 100×, and 1000×, and labelled as the linear solutions L1, L2, L3, L4, L5.
# (§4) Test of Solubility of Crystal Form a and its Salts
# (§5) The crystal form A and its salts were tested for their solubility in medias at 4 different pH values. About 10 mg of free base (10.8 mg of hydrochloride, 12.1 mg of methane sulfonate) was added into a glass vial. Four aliquots were weighed, 5.0 mL of individual media (water, SGF, FaSSIF, FeSSIF*) was added to each aliquot, respectively. The mixture was mixed homogeneously to for a suspension. A magnet was placed into the suspension, which was placed on a magnetic stirred for stirring. After 24 hours of stirred, a sample was taken and centrifugalized. The supernatant was detected by HPLC for its concentration and pH value.
# physchem = conditions: FeSSIF, pH 4.89, fessif, thermodynamic from solid
# Protocol: as §1, §2
# Preparation of Linear Solution
# as §3, §4, §5
# [3] = FaSSIF (pH 6.48), listed as Methane sulfonate Crystal form K
# [4] = Water (pH 6.33), listed as Methane sulfonate Crystal form K
# [5] = 40° C./75% RH, Day 5, sum of impurities > 0.02%
# [6] = 60° C., Day 5, sum of impurities > 0.02%
# [7] = 92.5% RH, Day 5, sum of impurities > 0.02%
# [8] = -20° C., Day 0 (control per se), Table 17
# [9] = -20° C., Day 0, sum of impurities > 0.02%
# [10] = FaSSIF (pH 6.48), listed as Hydrochloride Crystal form F
# [11] = Water (pH 6.33), listed as Hydrochloride Crystal form F
compound,measurement,setting,value
COc1cc2nccc(Oc3ccc(NC(=S)NC4CC4)c(Cl)c3F)c2cc1C(N)=O [Crystal form L],TGI % (Last Administration),A549 Transplant Model; 50 mg/kg,82%
same,TGI % (Last Administration),A549 Transplant Model; 100 mg/kg,90%
same,TGI % (Last Administration),A549 Transplant Model; 200 mg/kg,91%
same,Content (%),"[1]; 40° C./75% RH, Day 30, Table 18",99.4%
same,Total impurity (%),"[1]; 40° C./75% RH, Day 30, sum of impurities > 0.05%",0.9%
same,Content (%),"[1]; 40° C./75% RH, Day 60, Table 18",99.9%
same,Total impurity (%),"[1]; 40° C./75% RH, Day 60, sum of impurities > 0.05%",0.9%
same,Content (%),"[1]; 40° C./75% RH, Day 90, Table 18",97.5%
same,Total impurity (%),"[1]; 40° C./75% RH, Day 90, sum of impurities > 0.05%",1.0%
same,Content (%),"[1]; 60° C., Day 5, Table 18",97.8%
same,Total impurity (%),"[1]; 60° C., Day 5, sum of impurities > 0.05%",0.8%
same,Content (%),"[1]; 60° C., Day 10, Table 18",97.4%
same,Total impurity (%),"[1]; 60° C., Day 10, sum of impurities > 0.05%",0.8%
same,Content (%),"[1]; 60° C., Day 30, Table 18",97.1%
same,Total impurity (%),"[1]; 60° C., Day 30, sum of impurities > 0.05%",0.8%
same,Content (%),"[1]; 92.5% RH, Day 5, Table 18",98.0%
same,Total impurity (%),"[1]; 92.5% RH, Day 5, sum of impurities > 0.05%",0.8%
same,Content (%),"[1]; 92.5% RH, Day 10, Table 18",97.6%
same,Total impurity (%),"[1]; 92.5% RH, Day 10, sum of impurities > 0.05%",0.8%
same,Content (%),"[1]; 92.5% RH, Day 30, Table 18",100.2%
same,Total impurity (%),"[1]; 92.5% RH, Day 30, sum of impurities > 0.05%",0.8%
same,Content (%),"[1]; -20° C., Day 0, Table 18",97.5%
same,Total impurity (%),"[1]; -20° C., Day 0, sum of impurities > 0.05%",0.8%
COc1cc2nccc(Oc3ccc(NC(=S)NC4CC4)c(Cl)c3F)c2cc1C(N)=O [methane sulfonate],"Solubility, conclusion in words","[2]; SGF, listed as methanesulfonate salt",good solubility
COc1cc2nccc(Oc3ccc(NC(=S)NC4CC4)c(Cl)c3F)c2cc1C(N)=O [Crystal form K],Solubility (ug/mL)_24 hr,[2]; [3],38.04 µg/mL
same,Solubility (ug/mL)_24 hr,"[2]; SGF (pH 1.72), methane sulfonate loaded to 10 mg/mL of free base, listed as Methane sulfonate Crystal form K",6601.59 µg/mL
same,Solubility (ug/mL)_24 hr,[2]; [4],329.78 µg/mL
same,pH (24 hr),[2]; [3],3.92
same,pH (24 hr),"[2]; FeSSIF (pH 4.89), listed as Methane sulfonate Crystal form K",4.88
same,pH (24 hr),"[2]; SGF (pH 1.72), listed as Methane sulfonate Crystal form K",1.76
same,pH (24 hr),[2]; [4],2.53
same,Content (%),"[1]; 40° C./75% RH, Day 5, Table 17",98.5%
same,Total impurity (%),[1]; [5],5.32%
same,Content (%),"[1]; 40° C./75% RH, Day 10, Table 17",101.7%
same,Total impurity (%),"[1]; 40° C./75% RH, Day 10, sum of impurities > 0.02%",5.62%
same,Content (%),"[1]; 60° C., Day 5, Table 17",94.6%
same,Total impurity (%),[1]; [6],9.33%
same,Content (%),"[1]; 60° C., Day 10, Table 17",93.9%
same,Total impurity (%),"[1]; 60° C., Day 10, sum of impurities > 0.02%",8.94%
same,Content (%),"[1]; 92.5% RH, Day 5, Table 17",99.3%
same,Total impurity (%),[1]; [7],5.16%
same,Content (%),"[1]; 92.5% RH, Day 10, Table 17",99.5%
same,Total impurity (%),"[1]; 92.5% RH, Day 10, sum of impurities > 0.02%",4.87%
same,Content (%),[1]; [8],100.0%
same,Total impurity (%),[1]; [9],5.20%
COc1cc2nccc(Oc3ccc(NC(=S)NC4CC4)c(Cl)c3F)c2cc1C(N)=O [Crystal form F],solubility at 24 h,physchem,70.1 µg/mL
same,Solubility (ug/mL)_24 hr,[2]; [10],64.32 µg/mL
same,Solubility (ug/mL)_24 hr,"[2]; SGF (pH 1.72), methane sulfonate loaded to 10 mg/mL of free base, listed as Hydrochloride Crystal form F",1217.07 µg/mL
same,Solubility (ug/mL)_24 hr,[2]; [11],319.05 µg/mL
same,pH (24 hr),[2]; [10],3.73
same,pH (24 hr),"[2]; FeSSIF (pH 4.89), listed as Hydrochloride Crystal form F",4.89
same,pH (24 hr),"[2]; SGF (pH 1.72), listed as Hydrochloride Crystal form F",1.80
same,pH (24 hr),[2]; [11],2.56
same,Content (%),"[1]; 40° C./75% RH, Day 5, Table 17",100.5%
same,Total impurity (%),[1]; [5],4.94%
same,Content (%),"[1]; 60° C., Day 5, Table 17",99.6%
same,Total impurity (%),[1]; [6],4.86%
same,Content (%),"[1]; 92.5% RH, Day 5, Table 17",100.3%
same,Total impurity (%),[1]; [7],4.52%
same,Content (%),[1]; [8],100.0%
same,Total impurity (%),[1]; [9],4.66%
COc1cc2nccc(Oc3ccc(NC(=S)NC4CC4)c(Cl)c3F)c2cc1C(N)=O [Crystal form A],Solubility (ug/mL)_24 hr,[2]; FaSSIF (pH 6.48),2.62 µg/mL
same,Solubility (ug/mL)_24 hr,"[2]; SGF (pH 1.72), methane sulfonate loaded to 10 mg/mL of free base",692.77 µg/mL
same,Solubility (ug/mL)_24 hr,[2]; Water (pH 6.33),2.38 µg/mL
same,pH (24 hr),[2]; FaSSIF (pH 6.48),6.18
same,pH (24 hr),[2]; FeSSIF (pH 4.89),4.98
same,pH (24 hr),[2]; SGF (pH 1.72),1.97
same,pH (24 hr),[2]; Water (pH 6.33),7.16
